In patent US20210008097A1, “Compositions Comprising Galactose-Pronged Polysaccharides” (Galectin Therapeutics, Inc., priority 2006, published 2021):
Each block holds one compound with its values, some of them ahead of it.

Key:
[1] = Liver, lung, kidney and plasma distribution of radiolabeled (tritiated) galactomannan after single intravenous injection; format: in vivo, male NCr-nu athymic nude mice; conditions: for μCi of 3H-galactomannan per 1 g of kidney / μCi of 3H-galactomannan per 1 g of liver / μCi of 3H-galactomannan per 1 g of lungs / μCi of 3H-galactomannan per kidney, total / μCi of 3H-galactomannan per lungs, total / μCi of 3H-galactomannan per mL of plasma / μCi of 3H-galactomannan per liver, total: 6 or 60 mg/kg i.v., pooled; for μCi of 3H-galactomannan per liver, total: average of four animals
Description: Twelve male NCr-nu athymic nude mice (Charles Rivers Laboratories, Raleigh, N.C.) were acclimated in the laboratory one week prior to experimentation. The animals were housed in microisolator cages, four per cage, and using a 12-hour light/dark cycle. All animals received sterilized tap water and sterile rodent food ad libitum. The animals were observed daily and clinical signs were noted. The mice were healthy and had not been previously used in other experimental procedures.
Tritiation of the galactomannan was performed as follows. 12.8 mg of the galactomannan was dissolved in 2.0 mL of water and exposed to 25 Curies of tritium gas in the presence of Pd/BaSO4 catalyst (120 mg, totally insoluble in water). After one hour the gas supply was removed, the catalyst was filtered away, and the aqueous solution of the galactomannan was evaporated to dryness repeatedly (four-fold, adding water), until no labile tritium was found. Total yield of the labeled galactomannan was 3.8 mCi, specific radioactivity was […].
All twelve mice were given a single intravenous injection of cold or tritiated galactomannan (either 6 or 60 mg/kg) on the same day. Non-labeled galactomannan was formulated in saline, and tritiated galactomannan was added to the solution so that each animal received 10 μCi of radioactivity. All dosing solutions (100 μL each) were counted in duplicate. Six mice were injected with 6 mg/kg solution, and six mice—with 60 mg/kg solution.
Two mice from each group were bled at 1, 6, and 24 hrs after injection, and plasma was prepared. Animals were then sacrificed; livers, kidneys and lungs were collected, weighed and flash-frozen for further analysis.
After weighing, livers were dissolved in 10 mL of Soluene 350 and incubated first for 4 hrs at 50° C., and at room temperature, until tissues were solubilized. One mL of the resulting solution was counted in a scintillation counter as a single sample. Based on tissue weight and the sample volume, the number of μCi of tritiated galactomannan per gram of tissue was calculated.
Kidneys were treated in the same manner, but dissolved in two mL of Soluene. After the tissue was solubilized at room temperature, 15 mL of Safety Solve scintillation fluid was added and samples were incubated overnight. Five mL of the resulting solution were diluted in 15 mL of Safety Solve and counted in a scintillation counter as a single sample. Lungs were treated in the same manner but dissolved in one mL of Soluene. Plasma samples (50 μL each) were placed direct into Safety Solve and counted as a single sample.
The statistical evaluation was based on experiments to trace and quantify the labeled galactomannan in organs/tissues (liver, kidneys, lung, and plasma). Six mice were treated with galactomannan at 60 mg/kg with each of 2 mice sacrificed at 1, 6, and 24 hours; six mice were treated with galactomannan at 6 mg/kg with each of 2 mice sacrificed at 1, 6, and 24 hours, as described above. The percentages of ^3H-galactomannan recovered per organ (μCi/gram) was used for analyses; plasma outcome (μCi/ml) was counted from the entire sample.
The assessment of radiolabel uptake was challenging with only two mice per treatment-sacrifice time combination and occasional outliers. To address the number of mice per group, pooling tests were performed for the two galactomannan treatment groups; this would potentially increase sample size per group to four. To address possible outliers, all outcomes for each individual mouse was visually compared to the other mice in the series-treatment-time combination; the four possible mice outcomes were considered in this evaluation since any sigma-based rule would have excluded none or both observations if applied separately to the two different series.
SAS (Version 6.12, Cary, N.C.) was used for all analyses. PROC ANOVA was used for pooling tests, while […] was used to estimate means and standard deviations.
Overall, the data in Table 1 are average for four animals.

[2] = after 24 hrs; cited from earlier work

increase of the amount of bound galactomannan ([1]; 60 mg/kg versus 6 mg/kg (10-times higher dose)): 10 fold | μCi of 3H-galactomannan per 1 g of kidney ([1]; 1 hr after injection): 0.302 μCi/gram | μCi of 3H-galactomannan per 1 g of liver ([1]; 1 hr after injection): 0.219 μCi/gram | μCi of 3H-galactomannan per 1 g of lungs ([1]; 1 hr after injection): 0.117 μCi/gram | μCi of 3H-galactomannan per kidney, total ([1]; 1 hr after injection): 0.120 μCi | μCi of 3H-galactomannan per lungs, total ([1]; 1 hr after injection): 0.019 μCi | μCi of 3H-galactomannan per mL of plasma ([1]; 1 hr after injection): 0.201 μCi/ml | μCi of 3H-galactomannan per liver, total ([1]; 1 hr after injection): 0.262 μCi | μCi of 3H-galactomannan per 1 g of kidney ([1]; 6 hr after injection): 0.131 μCi/gram | μCi of 3H-galactomannan per 1 g of liver ([1]; 6 hr after injection): 0.146 μCi/gram | μCi of 3H-galactomannan per 1 g of lungs ([1]; 6 hr after injection): 0.063 μCi/gram | μCi of 3H-galactomannan per kidney, total ([1]; 6 hr after injection): 0.060 μCi | μCi of 3H-galactomannan per lungs, total ([1]; 6 hr after injection): 0.012 μCi | μCi of 3H-galactomannan per mL of plasma ([1]; 6 hr after injection): 0.095 μCi/ml | μCi of 3H-galactomannan per liver, total ([1]; 6 hr after injection): 0.196 μCi | μCi of 3H-galactomannan per 1 g of kidney ([1]; 24 hrs after injection): 0.087 μCi/gram | μCi of 3H-galactomannan per 1 g of liver ([1]; 24 hrs after injection): 0.129 μCi/gram | μCi of 3H-galactomannan per 1 g of lungs ([1]; 24 hrs after injection): 0.060 μCi/gram | μCi of 3H-galactomannan per kidney, total ([1]; 24 hrs after injection): 0.040 μCi | μCi of 3H-galactomannan per lungs, total ([1]; 24 hrs after injection): 0.011 μCi | μCi of 3H-galactomannan per mL of plasma ([1]; 24 hrs after injection): 0.106 μCi/ml | μCi of 3H-galactomannan per liver, total ([1]; 24 hrs after injection): 0.169 μCi | saturation of the binding to liver, kidney, lung, and plasma ([1]; between the 6 mg/kg and 60 mg/kg doses): did not reach saturation of the binding | share of the radioactivity detected at one hour after injection still present ([1]; liver, at 24 hours, average): more than 50% | share of the one-hour radioactivity detected ([1]; plasma, kidneys, and lungs, at 6 hours, average): approximately 50%
Compound: galactomannan

Compound: O=c1[nH]cc(F)c(=O)[nH]1 [5-fluorouracil]
clearance from the kidneys, eliminated to [2]: 3.8% | clearance from the liver, eliminated to [2]: 1.6% | clearance from the lungs, eliminated to [2]: 3.6%
